The values below come from patent US20210139484A1, “DIHYDROISOQUINOLINE-2(1H)-CARBOXAMIDE AND RELATED COMPOUNDS AND THEIR USE IN TREATING MEDICAL CONDITIONS” (GOSSAMER BIO SERVICES, INC., priority 2018, published 2021).

The target in the first assay is T1, human HPK1 protein (Homo sapiens, UniProt Q92918).
T1 construct: recombinant human HPK1 protein (a.a. 1-346) was expressed in Sf9 insect cells; GST (N); purchased Signalchem M23-11G; host or cells: Sf9 insect cells (baculovirus)
T1 sequence (Q92918 1-346): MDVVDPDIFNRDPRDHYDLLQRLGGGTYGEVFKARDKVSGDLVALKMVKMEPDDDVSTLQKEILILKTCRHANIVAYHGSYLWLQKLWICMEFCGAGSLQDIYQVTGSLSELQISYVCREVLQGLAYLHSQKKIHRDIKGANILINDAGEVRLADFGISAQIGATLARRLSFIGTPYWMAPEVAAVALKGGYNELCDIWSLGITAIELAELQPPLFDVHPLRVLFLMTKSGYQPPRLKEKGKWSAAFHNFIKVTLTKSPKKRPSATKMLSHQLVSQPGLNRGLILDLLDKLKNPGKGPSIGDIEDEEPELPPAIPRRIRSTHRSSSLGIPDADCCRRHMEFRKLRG
As to the kind of experiment: Human HPK1 protein TR-FRET assay. It counts as biochemical. To be noted: 1 mM ATP, Table 19. Here is the method:
Exemplary compounds from the above Examples were tested for ability to inhibit HPK1 using a human HPK1 protein TR-FRET Assay. Assay procedures and results are described below.
N-terminal GST-tagged recombinant human HPK1 protein (a.a. 1-346) was expressed in Sf9 insect cells using a baculovirus expression system (Signalchem Catalog #M23-11G). The enzyme was diluted in assay buffer (50 mM Tris pH 7.5, 1 mM MgCl2, 0.01% NP-40 and 2 mM DTT) to obtain a 4× working solution at a concentration of 40 nM HPK1 enzyme.
A 5 μM stock of ULight™ CREBtide peptide RRPSYRK (Perkin Elmer Product No. TRF0107-M) derived from human cAMP Response Element Binding (CREB) Protein was prepared in storage buffer containing 50 mM Tris-HCl (pH 7.4), 0.9% NaCl, 0.1% BSA, and 0.05% sodium azide. The CREBtide substrate was diluted in assay buffer (50 mM Tris pH 7.5, 1 mM MgCl2, 0.01% NP-40, 2 mM DTT) with 2 mM ATP to a final concentration of 200 nM CREBtide peptide to obtain a 2× working solution of substrate. HPK1 enzyme and CREBtide substrate solutions were mixed with compounds diluted in DMSO to obtain a final concentration of enzyme, substrate, and ATP of 10 nM, 100 nM, and 1 mM, respectively, in 1% DMSO. The final assay mixture was incubated at room temperature for 60 minutes.
A solution of Europium-labeled anti-phospho-CREB (Ser133) antibody (Perkin Elmer Product No. TRF0200-M), EDTA and LANCE™ Detection Buffer (Perkin Elmer Product No. CR97-100) were added to each well to obtain a final concentration of 2 nM antibody, 10 mM EDTA and 1× LANCE buffer. The resulting mixture was incubated at room temperature for 60 minutes.
The fluorescence resonance energy transfer (FRET) signal was measured on an Envision plate reader: Excitation filter=340 nm, APC emission=665 nm, Europium emission=615 nm, dichroic mirror=D400/D630, delay time=100 μs, and integration time=200 μs. The half maximal inhibitory concentration (IC50) values for compounds were calculated from the quotient of the fluorescence signal at 665 nm divided by the fluorescence signal at 615 nm. The quotient of the fluorescence signals in the presence of DMSO without compound is set as 100 percent enzymatic activity. A 4-parameter logistic model in PRISM (GraphPad) was used to calculate the IC50 for a given compound.
A general note: In TR-FRET formats the signal depends on donor and acceptor labels being close together.
Regarding `CCC1CN(C(=O)Nc2ccc(CN3CCN(CC)CC3)c(C(F)(F)F)c2)Cc2cc(Oc3ccnc4[nH]ccc34)ccc21` (stereo not drawn) [IV-20], the IC50 is below 500 nM.

In turn, `CCN1CCN(Cc2ccc(NC(=O)N3CCc4c(C)cc(Oc5ccnc6[nH]ccc56)cc4C3C)cc2C(F)(F)F)CC1` (single isomer, unassigned) [IV-4] returned an IC50 below 500 nM.

As to `CCN1CCN(Cc2ccc(NC(=O)N3CCc4ccc(Oc5ccnn6cccc56)cc4C3)cc2C(F)(F)F)CC1` [II-19], the IC50 was below 500 nM.

Consider `Cc1cc2c(Oc3ccc4c(c3)CN(C(=O)Nc3cnc(OC5CCN(C)CC5)c(C(F)(F)F)c3)CC4C)ccnc2[nH]1` (single isomer, unassigned) [IV-40], for which the IC50 was below 500 nM.

In the case of `CCN1CCN(Cc2ccc(NC(=O)N3CCc4ncc(Oc5ncnc6[nH]c(C)cc56)cc4C3C)cc2C(F)(F)F)CC1` (stereo not drawn) [VIII-6], the IC50 lay in the range of 500 to 5000 nM.

As for `CCN1CCN(Cc2ccc(NC(=O)N3CCc4ccc(Oc5ccnc6[nH]c(CCO)cc56)cc4[C@@H]3C)cc2C(F)(F)F)CC1` [V-24], the IC50 was below 500 nM.

In turn, `CCN1CCN(Cc2ccc(NC(=O)N3CCc4ccc(Oc5ccnc6[nH]c(C)cc56)cc4[C@@H]3C)cc2C(F)(F)F)CC1` [V-29] gave a concentration for half-maximal inhibition (IC50) below 500 nM.

Turning to `C[C@H]1c2cc(Oc3ccnc4[nH]ccc34)ccc2CCN1C(=O)Nc1ccc(CN2CCN(C)CC2)c(C(F)(F)F)c1` [V-2], the half-inhibitory concentration (IC50) is below 500 nM.

As to `CCN1CCN(Cc2ccc(NC(=O)N3Cc4cc(Nc5ccnc(NC)c5)cnc4C(C)C3)cc2C(F)(F)F)CC1` (single isomer, unassigned) [IX-2], the IC50 was in the range of 500 to 5000 nM.

Take `CCN1CCN(Cc2ccc(NC(=O)N3Cc4cc(Nc5ccnc(NC)c5)cnc4C(C)C3)cc2C(F)(F)F)CC1` (single isomer, unassigned) [IX-3]: the 50% inhibitory concentration (IC50) is 5000 to 10000 nM.

With `CCN1CCN(Cc2ccc(NC(=O)N3Cc4cc(Oc5ccnc6[nH]ccc56)ccc4C(C)C3)cc2C(F)(F)F)CC1` (single isomer, unassigned) [IV-2], the IC50 is below 500 nM.

`CCN1CCN(Cc2ccc(NC(=O)N3CCc4ccc(Oc5ccnc6[nH]ccc56)cc4[C@@H]3C)cc2C(F)(F)F)C(=O)C1` [V-20] came in with an IC50 of 500 to 5000 nM.

As to `CCN1CCN(Cc2ccc(NC(=O)N3CCc4ccc(Oc5ncnn6cc(C#N)cc56)cc4[C@@H]3C)cc2C(F)(F)F)CC1` [V-9], the IC50 was below 500 nM.

Take `CCN1CCN(Cc2ccc(NC(=O)N3CCc4ccc(Oc5ccnc6[nH]c(C)cc56)cc4C3)cc2C(F)(F)F)CC1` [III-4]: the IC50 was below 500 nM.

The compound `CCN1CCN(Cc2ccc(NC(=O)N3Cc4cc(Oc5ccnc6[nH]ccc56)ccc4C(C)C3)cc2C(F)(F)F)CC1` (stereo not drawn) [IV-3] showed an IC50 below 500 nM.

`CCN1CCN(Cc2ccc(NC(=O)N3CCc4ccc(Oc5c(Cl)cnc6[nH]ccc56)cc4C3)cc2C(F)(F)F)CC1` [III-7] came in with an IC50 of 500 to 5000 nM.

The compound `C[C@H]1c2cc(Oc3ccnc4[nH]ccc34)ccc2CCN1C(=O)Nc1cc(C(F)(F)F)c(OC2CCN(C)CC2)cn1` [IV-9] had an IC50 below 500 nM.

The compound `CCN1CCN(Cc2ccc(NC(=O)N3CCc4ccc(Oc5ncnc6[nH]cnc56)cc4C3)cc2C(F)(F)F)CC1` [II-6] had an IC50 below 500 nM.

`CCN1CCN(Cc2ccc(NC(=O)N3CCc4cc(Br)c(Oc5ccnc6[nH]ccc56)cc4C3C)cc2C(F)(F)F)CC1` (stereo not drawn) [IV-13] gave an IC50 below 500 nM.

The assay is the same for the next values; noted with them: 1 mM ATP, Table 20.
As to `CN1CCN(Cc2ccc(NC(=O)N3CCc4cc(F)c(Nc5c(F)cnc6[nH]c(-c7cnn(C)c7)cc56)cc4C3)cc2C(F)(F)F)CC1` [XVII-3], the IC50 is below 500 nM.

For the compound `Cc1cc2c(Oc3cnc4c(c3)CN(C(=O)Nc3ccc(CN5CCN(C)CC5)c(OC(F)(F)F)c3)C[C@H]4C)ccnc2[nH]1` [XIV-89], the IC50 was below 500 nM.

With `CCC1CN(C(=O)Nc2ccc(CN3CCN(CC)CC3)c(C(F)(F)F)c2)Cc2cc(Oc3cc(NC(=O)OC)ncc3F)cnc21` (stereo not drawn) [XIV-87], the IC50 was below 500 nM.

In the case of `CC[C@H]1CN(C(=O)Nc2ccc(CN3CCN(C)CC3)c(C(F)(F)F)c2)Cc2cc(Oc3ccnc4[nH]c(C#N)cc34)cnc21` [compound 20, (8S)-3-[(2-Cyano-1H-pyrrolo[2,3-b]pyridin-4-yl)oxy]-8-ethyl-N-[4-[(4-methylpiperazin-1-yl)methyl]-3-(trifluoromethyl)phenyl]-7,8-dihydro-5H-1,6-naphthyridine-6-carboxamide], the IC50 was below 500 nM.

With `C[C@H]1CN(C(=O)Nc2ccc(CN3CCN(C)CC3)c(C(F)(F)F)c2)Cc2cc(Oc3ccnc4[nH]c(C5(O)COC5)cc34)ccc21` [XV-32], the IC50 is below 500 nM.

`CC[C@@H]1CN(C(=O)Nc2ccc(CN3CCN(C)CC3)c(C(F)F)c2)Cc2cc(Oc3ccnc4[nH]c(C#N)cc34)ccc21` [XV-18] had an IC50 below 500 nM.

With `C[C@@H]1Cc2ccc(Oc3c(F)cnc4[nH]c(C5(O)CC5)cc34)cc2CN1C(=O)Nc1ccc(CN2CCN(C)CC2)c(C(F)(F)F)c1` [XVI-9], the 50% inhibitory concentration (IC50) is below 500 nM.

`CC[C@H]1CN(C(=O)Nc2ccc(CN3CCN(C)CC3)c(C(F)(F)F)c2)Cc2cc(Oc3ccnc4[nH]c(C(=O)N(C)CCCO)cc34)cnc21` [XIV-111] gave an IC50 below 500 nM.

In turn, `Cc1cc2c(Oc3cnc4c(c3)CN(C(=O)Nc3ccc(CN5CCN(C)CC5)c(C(F)(F)F)c3)C[C@@H]4C)ccnc2[nH]1` [XIV-90] registered an IC50 below 500 nM.

The compound `CCN1CCN(Cc2ccc(NC(=O)N3Cc4cc(Oc5ccnc6[nH]ccc56)cnc4C[C@H]3C)cc2C(F)(F)F)CC1` [XVIII-19] gave an IC50 below 500 nM.

As to `CCN1CCN(Cc2ccc(NC(=O)N3Cc4cc(Oc5ccnc6[nH]c(C)cc56)c(C)nc4C(C)C3)cc2C(F)(F)F)CC1` (stereo not drawn) [XVIII-2], the IC50 is below 500 nM.

In turn, `CCN1CCN(Cc2ccc(NC(=O)C3CCc4ncc(Oc5ccnc6[nH]ccc56)cc4C3)cc2C(F)(F)F)CC1` (stereo not drawn) [compound 24, 3-((1H-Pyrrolo[2,3-b]pyridin-4-yl)oxy)-N-(4-((4-ethylpiperazin-1-yl)methyl)-3-(trifluoromethyl)phenyl)-5,6,7,8-tetrahydroquinoline-6-carboxamide] had an IC50 below 500 nM.

The compound `CC[C@@H]1CN(C(=O)Nc2cnc(OC3CCN(C)CC3)c(C(F)(F)F)c2)Cc2cc(Oc3ccnc4[nH]c(C5CC5)cc34)cnc21` [XIV-43] registered an IC50 below 500 nM.

For the compound `CC[C@H]1CN(C(=O)Nc2ccc(CN3CCN(CCO)CC3)c(C(F)F)c2)Cc2cc(Oc3ccnc4[nH]c(C(N)=O)cc34)ccc21` [XV-41], the IC50 was below 500 nM.

In turn, `CC[C@H]1CN(C(=O)Nc2cc(C(F)(F)F)c(CN3CCN(C)CC3)cc2F)Cc2cc(Oc3ccnc4[nH]c(C(=O)N(C)C)cc34)cnc21` [XIV-137] had an IC50 below 500 nM.

`C[C@H]1c2cc(Oc3ccnc4[nH]c(CO)cc34)ccc2CCN1C(=O)Nc1ccc(CN2CCN(CCO)CC2)c(C(F)F)c1` [XIII-12] gave an IC50 below 500 nM.

Consider `CCN1CCN(Cc2ccc(NC(=O)N3CCc4ncc(Oc5ccnc6[nH]c(C)cc56)cc4C3C)cc2C(F)(F)F)CC1` (single isomer, unassigned) [XI-9], for which the IC50 was below 500 nM.

In the case of `CC[C@H]1CN(C(=O)Nc2ccc(CN3CCN(C)CC3)c(C(F)(F)F)c2)Cc2cc(Oc3ccnc4[nH]c(C(=O)N(C)CCO)cc34)cnc21` [XIV-105], the IC50 was below 500 nM.

The compound `CC[C@H]1CN(C(=O)Nc2ccc(CN3CCN(C)CC3)c(C(F)(F)F)c2)Cc2cc(Oc3ccnc4[nH]c(C(=O)N5CCCC5)cc34)cnc21` [XIV-102] gave an IC50 below 500 nM.

In turn, `CC[C@@H]1CN(C(=O)Nc2ccc(CN3CCNCC3)c(C(F)(F)F)c2)Cc2cc(Oc3ccnc4[nH]c(C5CC5)cc34)cnc21` [XIV-64] registered a half-inhibitory concentration (IC50) below 500 nM.

The term IC50 denotes the concentration that gives 50% inhibition. A higher IC50 goes with weaker potency in that assay.
